Results taken from US7501422B2, “Prolinamide-tetrazole derivatives as NK3 receptor antagonists” (Hoffmann-La Roche Inc., priority 2007, dated 2009).

molecular target: T1, recombinant human NK3 receptor (Homo sapiens, UniProt P29371); assay: [3H]SR142801 competition binding assay; conditions: membranes from HEK293 cells transiently expressing recombinant human NK3 receptor; [3H]SR142801 radioligand; read-out: Data Ki (hNK-3 receptor affinity)
T1 construct: expressed in transfected cells; host or cells: HEK293 cells, transient expression; membranes
T1 sequence (P29371 1-465): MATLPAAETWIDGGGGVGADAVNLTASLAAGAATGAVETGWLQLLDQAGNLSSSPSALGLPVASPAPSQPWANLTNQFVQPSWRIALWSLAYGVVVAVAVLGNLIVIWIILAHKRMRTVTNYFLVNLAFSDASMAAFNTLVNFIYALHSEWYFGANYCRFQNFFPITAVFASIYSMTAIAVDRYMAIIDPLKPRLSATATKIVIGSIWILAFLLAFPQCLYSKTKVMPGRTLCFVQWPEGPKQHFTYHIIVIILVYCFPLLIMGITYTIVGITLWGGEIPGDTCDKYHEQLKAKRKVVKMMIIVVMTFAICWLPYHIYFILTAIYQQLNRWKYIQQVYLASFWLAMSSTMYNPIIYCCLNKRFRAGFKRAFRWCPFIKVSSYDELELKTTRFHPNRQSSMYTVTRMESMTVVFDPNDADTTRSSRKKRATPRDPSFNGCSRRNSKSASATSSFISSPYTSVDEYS
Experimental: [^3H]SR142801 Competition Binding Assay
hNK3 receptor binding experiment were performed using [^3H]SR142801 (Catalog No. TRK1035, specific activity: 74.0 Ci/mmol, Amersham, G E Healthcare UK limited, Buckinghamshire, UK) and membrane isolated from HEK293 cells transiently expressing recombinant human NK3 receptor. After thawing, the membrane homogenates were centrifuged at 48,000×g for 10 min at 4° C., the pellets were resuspended in the 50 mM Tris-HCl, 4 mM MnCl2, 1 μM phosphoramidon, 0.1% BSA binding buffer at pH 7.4 to a final assay concentration of 5 μg protein/well. For inhibition experiments, membranes were incubated with [^3H]SR142801 at a concentration equal to KD value of radioligand and 10 concentrations of the inhibitory compound (0.0003-10 μM) (in a total reaction volume of 500 μl) for 75 min at room temperature (RT). At the end of the incubation, membranes were filtered onto unitfilter (96-well white microplate with bonded GF/C filter preincubated 1 h in 0.3% PEI+0.3% BSA, Packard BioScience, Meriden, Conn.) with a Filtermate 196 harvester (Packard BioScience) and washed 4 times with ice-cold 50 mM Tris-HCl, pH 7.4 buffer. Nonspecific binding was measured in the presence of 10 μM SB222200 for both radioligands. The radioactivity on the filter was counted (5 min) on a Packard Top-count microplate scintillation counter with quenching correction after addition of 45 μl of microscint 40 (Can berra Packard S. A., Zürich, Switzerland) and shaking for 1 h. Inhibition curves were fitted according to the Hill equation: y=100/(1+(x/IC50)^nH), where nH=slope factor using Excel-fit 4 software (Microsoft). IC50 values were derived from the inhibition curve and the affinity constant (Ki) values were calculated using the Cheng-Prussoff equation Ki=IC50/(1+[L]/KD) where [L] is the concentration of radioligand and KD is its dissociation constant at the receptor, derived from the saturation isotherm. All experiments were performed in duplicate and the mean±standard error (SEM) of the individual Ki values was calculated.

Row | Compound | Ki
1 | N#Cc1ccccc1N1CCN(C(=O)[C@@H]2C[C@H](n3nnc(-c4ccc(F)cc4F)n3)CN2Cc2ccccc2)CC1 [Example 1, 2-(4-{(2S,4S)-1-Benzyl-4-[5-(2,4-difluoro-phenyl)-tetrazol-2-yl]-pyrrolidine-2-carbonyl}-piperazin-1-yl)-benzonitrile] | 84 nM
2 | N#Cc1ccccc1N1CCN(C(=O)[C@@H]2C[C@H](n3nnc(-c4ccc(F)cc4F)n3)CN2Cc2ccccc2F)CC1 [Example 2, 2-{4-[(2S,4S)-4-[5-(2,4-Difluoro-phenyl)-tetrazol-2-yl]-1-(2-fluoro-benzyl)-pyrrolidine-2-carbonyl]-piperazin-1-yl}-benzonitrile] | 23 nM
3 | N#Cc1ccccc1N1CCN(C(=O)[C@@H]2C[C@H](n3nnc(-c4ccc(F)cc4F)n3)CN2Cc2cccc(F)c2)CC1 [Example 3, 2-{4-[(2S,4S)-4-[5-(2,4-Difluoro-phenyl)-tetrazol-2-yl]-1-(3-fluoro-benzyl)-pyrrolidine-2-carbonyl]-piperazin-1-yl}-benzonitrile] | 320 nM
4 | N#Cc1ccccc1N1CCN(C(=O)[C@@H]2C[C@H](n3nnc(-c4ccc(F)cc4F)n3)CN2Cc2ccc(F)cc2)CC1 [Example 4, 2-{4-[(2S,4S)-4-[5-(2,4-Difluoro-phenyl)-tetrazol-2-yl]-1-(4-fluoro-benzyl)-pyrrolidine-2-carbonyl]-piperazin-1-yl}-benzonitrile] | 965 nM
5 | N#Cc1ccccc1N1CCN(C(=O)[C@@H]2C[C@H](n3nnc(-c4ccc(F)cc4F)n3)CN2Cc2ccccc2Cl)CC1 [Example 5, 2-(4-{(2S,4S)-1-(2-Chloro-benzyl)-4-[5-(2,4-difluoro-phenyl)-tetrazol-2-yl]-pyrrolidine-2-carbonyl}-piperazin-1-yl)-benzonitrile] | 280 nM
6 | N#Cc1ccccc1N1CCN(C(=O)[C@@H]2C[C@H](n3nnc(-c4ccc(F)cc4F)n3)CN2Cc2cccc(Cl)c2)CC1 [Example 6, 2-(4-{(2S,4S)-1-(3-Chloro-benzyl)-4-[5-(2,4-difluoro-phenyl)-tetrazol-2-yl]-pyrrolidine-2-carbonyl}-piperazin-1-yl)-benzonitrile] | 295 nM
7 | N#Cc1ccccc1N1CCN(C(=O)[C@@H]2C[C@H](n3nnc(-c4ccc(F)cc4F)n3)CN2Cc2ccc(Cl)cc2)CC1 [Example 7, 2-(4-{(2S,4S)-1-(4-Chloro-benzyl)-4-[5-(2,4-difluoro-phenyl)-tetrazol-2-yl]-pyrrolidine-2-carbonyl}-piperazin-1-yl)-benzonitrile] | 208 nM
8 | N#Cc1ccccc1N1CCN(C(=O)[C@@H]2C[C@H](n3nnc(-c4ccc(F)cc4F)n3)CN2CC2CCCCC2)CC1 [Example 8, 2-(4-{(2S,4S)-1-Cyclohexylmethyl-4-[5-(2,4-difluoro-phenyl)-tetrazol-2-yl]-pyrrolidine-2-carbonyl}-piperazin-1-yl)-benzonitrile] | 696 nM
9 | N#Cc1ccccc1N1CCN(C(=O)[C@@H]2C[C@H](n3nnc(-c4ccc(F)cc4F)n3)CN2Cc2ccc(F)c(F)c2)CC1 [Example 9, 2-(4-{(2S,4S)-1-(3,4-Difluoro-benzyl)-4-[5-(2,4-difluoro-phenyl)-tetrazol-2-yl]-pyrrolidine-2-carbonyl}-piperazin-1-yl)-benzonitrile] | 387 nM

molecular target: T2, NK3 tachykinin receptor (Homo sapiens, UniProt P29371); assay: not given; conditions: phase II trial; negative symptoms (depression, anhedonia, social isolation, memory and attention deficits); cited from earlier work
T2 sequence (P29371 1-465): T1 sequence (P29371 1-465)

Row | Compound | activity in treatment of negative symptoms of schizophrenia
10 | CC(=O)N(C)C1(c2ccccc2)CCN(CCC[C@]2(c3ccc(Cl)c(Cl)c3)CCCN(C(=O)c3ccccc3)C2)CC1 [SR 142,801, Osanetant] | inactive

same assay, conditions: phase II trial; positive symptoms (altered behavior, delusion, hallucinations, extreme emotions, excited motor activity, incoherent speech); cited from earlier work

Row | Compound | activity on positive symptoms of schizophrenia
11 | CC(=O)N(C)C1(c2ccccc2)CCN(CCC[C@]2(c3ccc(Cl)c(Cl)c3)CCCN(C(=O)c3ccccc3)C2)CC1 [SR 142,801, Osanetant] | active
